One test has as its system 20-HETE. The settings on record: cited from earlier work.
In the next test the test system is cystic BPK cells. Description: BrdU incorporation in cystic BPK cells. The test is classed as cell-based, mouse. As to conditions: 10 μM, 36 hours; vehicle 118. On the procedure:
To determine the level of proliferation in the cystic BPK cells, chemically dissimilar inhibitors of cytochrome P450 4A (CYP4A) and 4F (CYP4F) inhibitors, specifically HET-0016 (10 and 20 μM) and DDMS (10 μM), were incubated for 36 hours with the BPK cells. Three hours prior to the harvesting of the cells, 5-bromo-2′-deoxyuridine (BrdU) at a concentration of 30 μM was added to determine the level of cell cycle inhibition. The cells were subsequently methanol fixed and BrdU-positive cells were identified by immunohistology with biotinylated monoclonal anti-BrdU antibody (Zymed, South San Francisco, Calif.). Data were expressed as the percentage of BrdU-labeled cells per 500 counted cells.
(In general: Incorporation of labelled thymidine or its analogues reports DNA synthesis.)

A further test concerns REC11 cells. Description: BrdU proliferation of EGF-stimulated REC11 cystic renal epithelial cells. The test is classed as cell-based, mouse. The settings on record: 10 μM, 36 hrs, after EGF 25 ng/ml for 6 hours. The source says:
REC11 cystic cell line is a conditionally immortalized epithelial collecting tubule (CT) cell line derived from the cystic kidneys of the BPK mouse model of human ARPKD crossed to the ImmortoMouse. The BPK mouse as a human ARPKD model has been described in Nauta J. et al., Pediatr Nephrol 1993, 7:163-172 and Nauta J. et al., Pediatr Res 1995, 37:755-763. The procedures for immortalization, cell isolation, cell culture and the complete phenotypic characterization of this cell line have been described in detail in Sweeney W. E. et al., Am J Physiol C Physiol 2001, 281:C1695-705. All analysis and experiments were performed on REC11 cells grown for a minimum 6 days under non-permissive conditions to eliminate residual Large T.
Proliferation of REC11 cells was stimulated by exposure of the cells for 6 hours with EGF (25 ng/ml). Next, the cells were treated with vehicle, HET0016 (10 μM, a 20-HETE synthesis inhibitor), HET0016 (20 μM), DDMS (10 μM, a 20-HETE synthesis inhibitor), or WIT-002 (10 μM, a 20-HETE antagonist) for 36 hrs, pulsed with BrdU, and then stained for BrdU labeled cells to determine the degree of cell proliferation. […] Cells treated with a higher dose of HET0016 (20 μM) (column C) reduced proliferation by 75% (p<0.020). Cells treated with another chemically dissimilar inhibitor of the synthesis of 20-HETE, DDMS (10 μM) (column D), reduced proliferation by 47% (p<0.05). Cells treated with WIT-002 (10 μM) (column E) reduced proliferation by 25%.

SMILES strings stand for the structures.

`Nn1nnc2ccccc21` [Compound 1-ABT, 1-aminobenzotriazole]: in the test with 20-HETE, the “20-HETE levels in vivo” value is given as “reduce 20-HETE levels in vivo”.

For the compound `C#CCCCCCCCCCCCCCCCC(=O)O` [Compound 17-ODYA, 17-Octadecynoic acid], in the test on 20-HETE, the “20-HETE levels in vivo” value was “reduce 20-HETE levels in vivo”.

For `CS(=O)(=O)NC(=O)CCCCCCCCCC=C(Br)Br` [DDMS, dibromododecenyl methylsulfonimide], the “BrdU-positive cells per 500 total cells counted” value in the test with cystic BPK cells is listed as 63 BrdU(+) cells. Also, the “reduction of proliferation (BrdU labeled cells) vs vehicle” value with REC11 cells is recorded as 47%.

Regarding `O=C(O)CCCC/C=C\CCCCCCC/C=C\CCCCO` [WIT-002, 20-hydroxyeicosa-6(Z),15(Z)-dienoic acid], in the test with REC11 cells, the “reduction of proliferation (BrdU labeled cells) vs vehicle” value was 25%.

These data come from patent US9511072B2, “Methods of modulating cell proliferation and cyst formation in polycystic kidney and liver diseases” (The Medical College of Wisconsin, Inc., priority 2006, dated 2016).
